Earlier results as cited in patent US12343373B2, “Glycopeptide antibiotics liquid formulations and methods and uses thereof” (SOMERSET THERAPEUTICS, LLC, priority 2020, dated 2025).
Like-named read-outs stand apart in the source and are kept apart here.

Key:
[1] = oral dosing

Compound	hydrolysis to methionine [1]	also measured
CSCC[C@@H](NC(C)=O)C(=O)O [NADM, N-acetyl-D-methionine]	only minimally hydrolyzed to D- and L-methionine	
CC(=O)N[C@H](C)C(=O)O [N-acetyl D-alanine (NADA), N-acetyl-D-alanine]		embryo-fetal toxicity (animal reproduction studies, product label black box warning): caused fetal malformations
polyethylene glycol 400 [polyethylene glycol (PEG 400)]		embryo-fetal toxicity (in vivo): caused fetal malformations
CSCC[C@H](NC(C)=O)C(=O)O [NALM, N-acetyl-L-methionine]	completely hydrolyzed to L-methionine and acetic acid	
